According to ChEMBL document CHEMBL1135074, “Two neolignans from Perilla frutescens and their inhibition of nitric oxide synthase and tumor necrosis factor-alpha expression in murine macrophage cell line RAW 264.7” (Bioorg Med Chem Lett, 2002):

Experiments:
RAW = experiment: Tested for the inhibition of nitric oxide syntheses in murine macrophage cell line RAW 264.7 at a concentration of 30 uM; type: cell-based
[1] = Tested for the inhibition of nitric oxide syntheses in murine macrophage cell line RAW 264.7; type: cell-based
L929 = experiment: Relative cytotoxicity measured as inhibition of LPS induced TNF alpha production in L929 cells at 10 uM; type: functional, Mus musculus; parameters: scale not given: the % may be the effect or the level left
RAW264.7 = experiment: Tested for the inhibition of NO production in RAW 264.7 cells; type: functional, Mus musculus

| SMILES | inhibition (RAW) [%] | IC50 [1] [µM] | Activity (L929) [%] | Inhibition (RAW264.7) [%] |
| --- | --- | --- | --- | --- |
| COc1cc(OC)c([C@@H]2[C@@H](C)[C@H](C)[C@H]2c2cc(OC)c(OC)cc2OC)cc1OC | 17 | 5.9 | 26 |  |
| COc1cc(OC)c([C@@H]2[C@H](C)[C@@H](C)[C@H]2c2cc(OC)c(OC)cc2OC)cc1OC [MAGNOSALIN] |  | 53.5 | 84 |  |
| N=C(N)NN [PIMAGEDINE] |  |  |  | 79 |
